Non-standard residues stand in square brackets, D forms with d. Residues, ends and D or L forms follow the SMILES beside them. F2Pmp = N[C@@H](Cc1ccc(C(F)(F)P(=O)(O)O)cc1)C(=O)O
Target: T1, Tyrosine-protein phosphatase non-receptor type 1 [1-298] (Homo sapiens, UniProt P18031)
T1 construct: 1-298
T1 sequence (P18031 whole entry): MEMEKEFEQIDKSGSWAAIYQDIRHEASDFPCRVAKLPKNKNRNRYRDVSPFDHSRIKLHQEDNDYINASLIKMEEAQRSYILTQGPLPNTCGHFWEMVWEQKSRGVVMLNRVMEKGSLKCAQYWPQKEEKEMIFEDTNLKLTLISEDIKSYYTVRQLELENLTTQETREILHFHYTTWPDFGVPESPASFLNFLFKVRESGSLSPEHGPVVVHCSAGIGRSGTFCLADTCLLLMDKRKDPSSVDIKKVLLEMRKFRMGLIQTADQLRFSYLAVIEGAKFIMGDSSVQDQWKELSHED
Assay: Phosphatase Inhibition Assay

| Structure (SMILES) | IC50 (pH 7, 22 °C) [µM] | IC50 [µM] |
| --- | --- | --- |
| NC(=O)[C@H](Cc1ccccc1)NC(=O)[C@@H](NC(=O)Cc1ccc(C(F)(F)P(=O)(O)O)cc1)C(=O)O [(2R)-2-{[(1S)-1-carbamoyl-2-phenylethyl]carbamoyl}-2-(1-{4-[difluoro(phosphono)methyl]phenyl}acetamido)acetic acid] | 33 |  |
| NC(=O)[C@H](Cc1ccc(C(F)(F)P(=O)(O)O)cc1)NC(=O)[C@@H](NC(=O)Cc1ccc(C(F)(F)P(=O)(O)O)cc1)C(=O)O [(2R)-2-{[(1S)-1-carbamoyl-2-{4-[difluoro(phosphono)methyl]phenyl}ethyl]carbamoyl}-2-(1-{4-[difluoro(phosphono)methyl]phenyl}acetamido)acetic acid] | 0.0004 |  |
| O=C1C[C@@H](c2ccc(C[C@H](Nc3nc4c(F)cc(Cl)cc4s3)c3nc4ccccc4[nH]3)cc2)S(=O)(=O)N1 [(5S)-5-{4-[(2S)-2-(1H-1,3-benzodiazol-2-yl)-2-[(6-chloro-4-fluoro-1,3-benzothiazol-2-yl)amino]ethyl]phenyl}-1,2-thiazolidine-1,1,3-trione] | 1.8 |  |
| Cc1ccc2nc(N[C@@H](Cc3ccc([C@@H]4CC(=O)NS4(=O)=O)cc3)c3nc4ccccc4[nH]3)sc2c1 [(5S)-5-{4-[(2S)-2-(1H-1,3-benzodiazol-2-yl)-2-[(6-methyl-1,3-benzothiazol-2-yl)amino]ethyl]phenyl}-1,2-thiazolidine-1,1,3-trione] |  | 1.1 |
| NC(=O)[C@H](Cc1ccc(C(F)(F)P(=O)(O)O)cc1)NC(=O)CNC(=O)Cc1ccc(C(F)(F)P(=O)(O)O)cc1 [({4-[(2S)-2-carbamoyl-2-[2-(1-{4-[difluoro(phosphono)methyl]phenyl}acetamido)acetamido]ethyl]phenyl}difluoromethyl)phosphonic acid] | 0.042 |  |
| NC(=O)[C@H](Cc1ccc(C(F)(F)P(=O)(O)O)cc1)NC(=O)[C@H](Cc1ccccc1)NC(=O)Cc1ccc(C(F)(F)P(=O)(O)O)cc1 [({4-[(2S)-2-carbamoyl-2-[(2S)-2-(1-{4-[difluoro(phosphono)methyl]phenyl}acetamido)-3-phenylpropanamido]ethyl]phenyl}difluoromethyl)phosphonic acid] | 0.0017 |  |
| CC(=O)N[C@@H](Cc1ccccc1)C(=O)N[C@@H](Cc1ccc(C(F)(F)P(=O)(O)O)cc1)C(N)=O [DFMP 5] (Ac-Phe-[F2Pmp]-NH2) | 1.7 |  |
| O=C1CC(c2ccc(C[C@H](NS(=O)(=O)c3ccccc3)c3nc4ccccc4[nH]3)cc2Br)S(=O)(=O)N1 (stereo partly drawn) [N-[(1S)-1-(1H-1,3-benzodiazol-2-yl)-2-[3-bromo-4-(1,1,3-trioxo-1,2-thiazolidin-5-yl)phenyl]ethyl]benzenesulfonamide] |  | 0.17 |
| O=C1CC(c2ccc(C[C@H](NS(=O)(=O)c3ccccc3)c3nc4ccccc4[nH]3)cc2Cl)S(=O)(=O)N1 (stereo partly drawn) [N-[(1S)-1-(1H-1,3-benzodiazol-2-yl)-2-[3-chloro-4-(1,1,3-trioxo-1,2-thiazolidin-5-yl)phenyl]ethyl]benzenesulfonamide] |  | 0.075 |
| N#Cc1cc(C[C@H](NS(=O)(=O)c2ccccc2)c2nc3ccccc3[nH]2)ccc1C1CC(=O)NS1(=O)=O (stereo partly drawn) [N-[(1S)-1-(1H-1,3-benzodiazol-2-yl)-2-[3-cyano-4-(1,1,3-trioxo-1,2-thiazolidin-5-yl)phenyl]ethyl]benzenesulfonamide] |  | 0.031 |
| C#Cc1cc(C[C@H](NS(=O)(=O)c2ccccc2)c2nc3ccccc3[nH]2)ccc1C1CC(=O)NS1(=O)=O (stereo partly drawn) [N-[(1S)-1-(1H-1,3-benzodiazol-2-yl)-2-[3-ethynyl-4-(1,1,3-trioxo-1,2-thiazolidin-5-yl)phenyl]ethyl]benzenesulfonamide] |  | 0.12 |
| O=C1CC(c2ccc(C[C@H](NS(=O)(=O)c3ccccc3)c3nc4ccccc4[nH]3)cc2F)S(=O)(=O)N1 (stereo partly drawn) [N-[(1S)-1-(1H-1,3-benzodiazol-2-yl)-2-[3-fluoro-4-(1,1,3-trioxo-1,2-thiazolidin-5-yl)phenyl]ethyl]benzenesulfonamide] |  | 0.034 |
| O=C1CC(c2ccc(C[C@H](NC(=O)C(F)(F)c3ccccc3)c3nc4ccccc4[nH]3)cc2)S(=O)(=O)N1 (stereo partly drawn) [N-[(1S)-1-(1H-1,3-benzodiazol-2-yl)-2-[4-(1,1,3-trioxo-1,2-thiazolidin-5-yl)phenyl]ethyl]-2,2-difluoro-2-phenylacetamide] |  | 0.2 |
| CC(F)(F)C(=O)N[C@@H](Cc1ccc(C2CC(=O)NS2(=O)=O)cc1)c1nc2ccccc2[nH]1 (stereo partly drawn) [N-[(1S)-1-(1H-1,3-benzodiazol-2-yl)-2-[4-(1,1,3-trioxo-1,2-thiazolidin-5-yl)phenyl]ethyl]-2,2-difluoropropanamide] |  | 0.3 |
| O=C1CC(c2ccc(C[C@H](NS(=O)(=O)c3cc(C(F)(F)F)ccc3C(F)(F)F)c3nc4ccccc4[nH]3)cc2)S(=O)(=O)N1 (stereo partly drawn) [N-[(1S)-1-(1H-1,3-benzodiazol-2-yl)-2-[4-(1,1,3-trioxo-1,2-thiazolidin-5-yl)phenyl]ethyl]-2,5-bis(trifluoromethyl)benzene-1-sulfonamide] |  | 0.21 |
| O=C1CC(c2ccc(C[C@H](NS(=O)(=O)c3ccc(C(F)(F)F)cc3Br)c3nc4ccccc4[nH]3)cc2)S(=O)(=O)N1 (stereo partly drawn) [N-[(1S)-1-(1H-1,3-benzodiazol-2-yl)-2-[4-(1,1,3-trioxo-1,2-thiazolidin-5-yl)phenyl]ethyl]-2-bromo-4-(trifluoromethyl)benzene-1-sulfonamide] |  | 0.17 |
| O=C1CC(c2ccc(C[C@H](NS(=O)(=O)c3ccccc3Cl)c3nc4ccccc4[nH]3)cc2)S(=O)(=O)N1 (stereo partly drawn) [N-[(1S)-1-(1H-1,3-benzodiazol-2-yl)-2-[4-(1,1,3-trioxo-1,2-thiazolidin-5-yl)phenyl]ethyl]-2-chlorobenzene-1-sulfonamide] |  | 0.16 |
| Cc1ccccc1S(=O)(=O)N[C@@H](Cc1ccc(C2CC(=O)NS2(=O)=O)cc1)c1nc2ccccc2[nH]1 (stereo partly drawn) [N-[(1S)-1-(1H-1,3-benzodiazol-2-yl)-2-[4-(1,1,3-trioxo-1,2-thiazolidin-5-yl)phenyl]ethyl]-2-methylbenzene-1-sulfonamide] |  | 0.3 |
| CC(C)C(=O)N[C@@H](Cc1ccc(C2CC(=O)NS2(=O)=O)cc1)c1nc2ccccc2[nH]1 (stereo partly drawn) [N-[(1S)-1-(1H-1,3-benzodiazol-2-yl)-2-[4-(1,1,3-trioxo-1,2-thiazolidin-5-yl)phenyl]ethyl]-2-methylpropanamide] |  | 3.2 |
| O=C1CC(c2ccc(C[C@H](NS(=O)(=O)c3cc(Cl)cc(Cl)c3)c3nc4ccccc4[nH]3)cc2)S(=O)(=O)N1 (stereo partly drawn) [N-[(1S)-1-(1H-1,3-benzodiazol-2-yl)-2-[4-(1,1,3-trioxo-1,2-thiazolidin-5-yl)phenyl]ethyl]-3,5-dichlorobenzene-1-sulfonamide] |  | 0.051 |
| O=C1CC(c2ccc(C[C@H](NS(=O)(=O)c3cccc(Oc4ccc(C(F)(F)F)cc4)c3)c3nc4ccccc4[nH]3)cc2)S(=O)(=O)N1 (stereo partly drawn) [N-[(1S)-1-(1H-1,3-benzodiazol-2-yl)-2-[4-(1,1,3-trioxo-1,2-thiazolidin-5-yl)phenyl]ethyl]-3-[4-(trifluoromethyl)phenoxy]benzene-1-sulfonamide] |  | 0.22 |
| O=C1CC(c2ccc(C[C@H](NS(=O)(=O)c3cccc(F)c3)c3nc4ccccc4[nH]3)cc2)S(=O)(=O)N1 (stereo partly drawn) [N-[(1S)-1-(1H-1,3-benzodiazol-2-yl)-2-[4-(1,1,3-trioxo-1,2-thiazolidin-5-yl)phenyl]ethyl]-3-fluorobenzene-1-sulfonamide] |  | 0.066 |
| Cc1cc(S(=O)(=O)N[C@@H](Cc2ccc(C3CC(=O)NS3(=O)=O)cc2)c2nc3ccccc3[nH]2)ccc1-c1ccccc1 (stereo partly drawn) [N-[(1S)-1-(1H-1,3-benzodiazol-2-yl)-2-[4-(1,1,3-trioxo-1,2-thiazolidin-5-yl)phenyl]ethyl]-3-methyl-4-phenylbenzene-1-sulfonamide] |  | 0.09 |
| O=C1CC(c2ccc(C[C@H](NS(=O)(=O)c3cccc(Oc4ccccc4)c3)c3nc4ccccc4[nH]3)cc2)S(=O)(=O)N1 (stereo partly drawn) [N-[(1S)-1-(1H-1,3-benzodiazol-2-yl)-2-[4-(1,1,3-trioxo-1,2-thiazolidin-5-yl)phenyl]ethyl]-3-phenoxybenzene-1-sulfonamide] |  | 0.11 |
| O=C(CCc1ccccc1)N[C@@H](Cc1ccc(C2CC(=O)NS2(=O)=O)cc1)c1nc2ccccc2[nH]1 (stereo partly drawn) [N-[(1S)-1-(1H-1,3-benzodiazol-2-yl)-2-[4-(1,1,3-trioxo-1,2-thiazolidin-5-yl)phenyl]ethyl]-3-phenylpropanamide] |  | 0.6 |
| CC(C)c1ccc(S(=O)(=O)N[C@@H](Cc2ccc(C3CC(=O)NS3(=O)=O)cc2)c2nc3ccccc3[nH]2)cc1 (stereo partly drawn) [N-[(1S)-1-(1H-1,3-benzodiazol-2-yl)-2-[4-(1,1,3-trioxo-1,2-thiazolidin-5-yl)phenyl]ethyl]-4-(propan-2-yl)benzene-1-sulfonamide] |  | 0.1 |
| O=C1CC(c2ccc(C[C@H](NS(=O)(=O)c3ccc(Oc4ccncc4)cc3)c3nc4ccccc4[nH]3)cc2)S(=O)(=O)N1 (stereo partly drawn) [N-[(1S)-1-(1H-1,3-benzodiazol-2-yl)-2-[4-(1,1,3-trioxo-1,2-thiazolidin-5-yl)phenyl]ethyl]-4-(pyridin-4-yloxy)benzene-1-sulfonamide] |  | 0.12 |
| O=C1CC(c2ccc(C[C@H](NS(=O)(=O)c3ccc(Br)c(C(F)(F)F)c3)c3nc4ccccc4[nH]3)cc2)S(=O)(=O)N1 (stereo partly drawn) [N-[(1S)-1-(1H-1,3-benzodiazol-2-yl)-2-[4-(1,1,3-trioxo-1,2-thiazolidin-5-yl)phenyl]ethyl]-4-bromo-3-(trifluoromethyl)benzene-1-sulfonamide] |  | 0.04 |
| Cc1ccc(S(=O)(=O)N[C@@H](Cc2ccc(C3CC(=O)NS3(=O)=O)cc2)c2nc3ccccc3[nH]2)cc1 (stereo partly drawn) [N-[(1S)-1-(1H-1,3-benzodiazol-2-yl)-2-[4-(1,1,3-trioxo-1,2-thiazolidin-5-yl)phenyl]ethyl]-4-methylbenzene-1-sulfonamide] |  | 0.08 |
| CC(=O)N[C@@H](Cc1ccc(C2CC(=O)NS2(=O)=O)cc1)c1nc2ccccc2[nH]1 (stereo partly drawn) [N-[(1S)-1-(1H-1,3-benzodiazol-2-yl)-2-[4-(1,1,3-trioxo-1,2-thiazolidin-5-yl)phenyl]ethyl]acetamide] |  | 2.6 |
